Results reported in patent US8618082B2, “Lupeol anti-tumor agent and uses thereof” (Wisconsin Alumni Research Foundation, priority 2004, dated 2013).
Entries after “also recorded” stand apart in the source; their conditions may differ.

What was measured:
Akt = assay: TPA-induced phosphorylation of Akt at Thr308 (western blot); format: in vivo, mouse
Protocol: (§1) FIG. 5. Inhibitory effect of Lupeol on TPA-induced activation of PI3K and phosphorylation of Akt in CD-1 mice: At different times after treatment, the animals were sacrificed, epidermal protein lysate was prepared, and PI3K and phosphorylated (Thr^308) Akt and total Akt protein expression were determined. The immunoblots shown here are representative of three independent experiments with similar results. The values above each lane indicate relative density of the band normalized to β-actin.
The animals were shaved on the dorsal side of the skin, divided into four groups and treated topically on the shaved area with either 0.4 ml vehicle (acetone), or TPA (3.2 nmol/0.4 ml acetone/animal, v/v), or Lupeol (1 or 2 mg/0.2 ml acetone/animal, w/v) followed 30 min later with TPA (3.2 nmol/0.2 ml acetone/animal). Animals were sacrificed at different times point i.e. 6, 12, 24 and 48 h post TPA treatment. […]
(§2) Epidermis from the whole skin was separated as described earlier (Katiyar et al., 1999) and was homogenized in ice-cold lysis buffer [50 mM Tris-HCl, 150 mM NaCl, 1 mM EGTA, 1 mM EDTA, 20 mM NaF, 100 mM Na3VO4, 0.5% NP-40, 1% Triton X-100, 1 mM PMSF (pH 7.4)] with freshly added protease inhibitor cocktail, Protease Inhibitor Cocktail Set III (Calbiochem, La Jolla, Calif., USA). […] The protein content in the lysates was measured by DC BioRad assay (BioRad Laboratories, Hercules, Calif.) as per the manufacturer's protocol.
(§3) For western blot analysis, 40 μg of the protein was resolved over 8-12% polyacrylamide gels and transferred to a nitrocellulose membrane. […] This was followed by incubation with anti-mouse or anti-rabbit secondary antibody horse-radish peroxidase (Amersham Life Sciences, Inc., USA) for 1 h and then washed several times and detected by chemiluminescence ECL kit, (Amersham Life Sciences, Inc., USA) and autoradiography using XAR-5 film obtained from Eastman Kodak Co. (Rochester, N.Y., USA). […]

CWR22Rv1 cells = assay: CWR22Rv1 xenograft tumor growth in athymic nude mice; format: in vivo, mouse; conditions: Lupeol 1 mg/animal i.p. three times a week, vs control mice
Protocol: FIG. 18 depicts effect of lupeol treatment on the growth of tumors from CWR22Rv1 cells implanted in nude mice. The growth was measured in terms of average volume of tumors as a function of time. Data is represented as mean±SD. * indicates p<0.05 (B) Number of mice remaining with tumor volumes<1000 mm^3 after treatment with corn oil alone or Lupeol for indicated weeks. * indicates p<0.01
To determine, whether lupeol could reduce the tumorigenicity of prostate cancer cells in animal model, androgen-dependent prostate cancer cells CW22Rv1, were implanted in a Athymic nude mouse xenograft model. Mice were given i.p. injection of Lupeol (1 mg/animal) three times a week. Tumor growth was measured weekly in terms of volume of tumors as function of time.

[1] = test system: catalytic (p110) and regulatory (p85) subunit of PI3K; assay: TPA-induced epidermal PI3K expression (western blot); format: in vivo, mouse
Protocol: as §1
The animals were shaved on the dorsal side of the skin, divided into four groups and treated topically on the shaved area with either 0.4 ml vehicle (acetone), or TPA (3.2 nmol/0.4 ml acetone/animal, v/v), or Lupeol (1 or 2 mg/0.2 ml acetone/animal, w/v) followed 30 min later with TPA (3.2 nmol/0.2 ml acetone/animal). Animals were sacrificed at different times point i.e. 6, 12, 24 and 48 h post TPA treatment. The epidermis was separated from the whole skin and homogenized in 0.1 M Tris-HCl buffer (pH 7.2) using a Polytron tissue homogenizer (Brinkmann Instruments, Westbury, N.Y., USA) at 100,000×g supernatant, and microsomal fractions were prepared as described earlier (Katiyar and Mukhtar, 1997). The sample of 6 h treatment group was used to assess the ODC activity as this time point has previously been shown for optimal induction of the enzyme (Katiyar er al., 1996).
as §2, with “USA). The homogenate was then centrifuged at 14,000×g for 25 minutes at 4° C. and the supernatant (total cell lysate) was collected, aliquoted and stored at −80° C. For the preparation of nuclear lysate, 0.2 g of the epidermis was homogenized in 1 ml of ice-cold phosphate-buffered saline (pH 7.6) and centrifuged at 12,000×g for 5 min at 4° C.” for “USA).”
as §3

[2] = test system: Fas receptor in LNCaP cells; assay: Fas-siRNA silenced LNCaP cells: Fas expression and viability; format: cell-based, human; conditions: vs LNCaP cells with Fas receptor expression treated with Lupeol
Protocol: FIG. 17 depicts effect of Lupeol treatment on the growth of CaP cells transfected with Fas-siRNA and on the expression of Fas receptor in Fas-silenced CaP cells: (A). Cells were treated with specified concentrations of Lupeol alone, anti-Fas mAb or non-sense siRNA (negative control), Fas-siRNA, combination (Lupeol+Fas-siRNA) and combination (anti-Fas mAb+Fas-siRNA). The expression of Fas receptor protein in total cell lysate was determined by western blot analysis. Equal loading was confirmed by stripping immunoblots and reprobing them for β-actin. The immunoblots shown here are representative of three independent experiments with similar results. (B). Cells were treated with specified concentrations of Lupeol alone, anti-Fas mAb or non-sense siRNA (negative control), Fas-siRNA, combination (Lupeol+Fas-siRNA) and combination (anti-Fas mAb+Fas-siRNA). The values represent percent viable cells where vehicle-treated cells were regarded as 100% viable. Data represents mean value of percent viable cells±S.E of three independent experiments.
To determine whether Lupeol induces apoptosis of LNCaP cells selectively through Fas receptor, we used siRNA technology. siRNA's have the ability to silence […] any specific protein. We designed siRNA against Fas receptor protein and treated LNCaP cell with them.

C=C(C)[C@@H]1CC[C@]2(C)CC[C@]3(C)[C@H](CC[C@@H]4[C@@]5(C)CC[C@H](O)C(C)(C)[C@@H]5CC[C@]43C)[C@@H]12 [Lupeol, Lup-20(29)-en-3β-ol]
TPA-induced phosphorylation of Akt at Thr308 (Akt; pre-application of Lupeol prior to TPA): dose dependent inhibition | total epidermal Akt content (Akt; vs vehicle treated control): no change was observed | tumor growth (tumor volume as function of time) (CWR22Rv1 cells): significant reduction in tumor growth; also recorded: significantly Lower than control mice | expression of p110 and p85 ([1]; 2 mg Lupeol prior to TPA): recovery of the expression of both p110 and p85 almost to their basal levels | TPA-induced increased expression of catalytic and regulatory subunits of PI3K ([1]; topical Lupeol 30 min prior to TPA): significant inhibition | cell death of Fas-silenced LNCaP cells [2]: reduced cell death
